Where “and” joins values, the source holds several entries; their conditions need not be identical. Equal values may be shown once.
Key:
[1] = test system: rats; assay: Blood glucose levels in rats co-administered with quercetin-3′-O-phosphate and tacrolimus; type: in vivo, rat; details: for Blood glucose, Mean change from Prograf ® control / Blood glucose, Mean change from Day 1: Q-Phosphate 114 mg/kg + Prograf 0.5 mg/kg i.p.; for Blood glucose, Mean: Q-Phosphate 114 mg/kg i.p. Day 11 to Day 25 + Prograf 0.5 mg/kg i.p., 5 rats; for Blood glucose, individual rats: Q-Phosphate 114 mg/kg i.p. once daily Day 11 to Day 25 + Prograf 0.5 mg/kg i.p. Day 1 to Day 25
Method: One set of 5 rats is treated from day 1 to day 25 with inert vehicle 2 intraperitoneally and treated from day 11 to day 25 with inert vehicle 1 intraperitoneally. […] A third set 5 of rats is treated from day 1 to day 25 with tacrolimus (Prograf®) intraperitoneally at 0.5 mg/kg, and treated from day 11 to day 25 intraperitoneally with quercetin-3′-O-phosphate (Q-Phosphate) at 114 mg/kg. The blood glucose level in the rats is measured on days 1, 10, 15, 20, and 25.

[2] = test system: Peripheral Benzodiazepine Receptor (PBR); assay: Secondary toxicity screen (MDS Pharma Services), radioligand binding; details: 10 μM
Method: (§1) A secondary pharmacological screening of molecules of interest at a fixed concentration is often practiced in the pharmaceutical industry in order to evaluate the effect of the compound on secondary targets that could result in untoward toxicity in-vivo. These secondary screens are well known in the art and can be carried out by labs which specialize in these tests such as MDS-Panlabs and CEREP. A secondary toxicity screen is performed with Quercetin-3′-O-phosphate at a concentration of 10 μM against 122 targets in enzyme, radioligand binding, and cellular assays by MDS Pharma Services by methods well known in the art. Inhibition is found in only the following targets (percent inhibition at 10 μM in parentheses): ATPase, Na+/K+, Heart, Pig (65%), Nitric Oxide Synthase, Endothelial (eNOS) (72%), Protein Tyrosine Kinase, FGFR2 (94%), Protein Tyrosine Kinase, FGFR1(96%), Protein Tyrosine Kinase, Insulin Receptor (91%), Protein Tyrosine Kinase, (82%), Protein Tyrosine Kinase, ZA70 (ZAP-70) (74%), UDP Glucuronosyltransferase, UGT1A1 (52%), Adenosine A1 (50%), Adrenergic α2A (57%), Dopamine D47 (51%), Peripheral Benzodiazepine Receptor (PBR) (53%), Transporter, Monoamine rabbit (68%), Serotonin (5-Hydroxytryptamine) 5-HT1A (62%).

[3] = test system: Dopamine D47; assay: as above; details: 10 μM
Method: as §1

[4] = test system: Transporter, Monoamine rabbit; assay: as above; details: 10 μM
Method: as §1

[5] = Solubility of quercetin-3′-O-phosphate in water; type: physicochemical; details: about pH 8 (about 4 g in 50 mL)
Method: The resultant solid from concentration of the decantate is added acetonitrile (500 mL) followed by water (50 mL) then 1N hydrochloric acid (approx. 20 mL) until a pH of about 5 is achieved. The solution is concentrated to a volume of about 120 mL. The residue is purified with a 600 g, C-18 reverse phase column with 60 mL injections in a gradient. The gradient is 100% water (1 L), 9:1 water:MeOH (1 L), 8:2 water:MeOH (1 L), 7:3 water:MeOH (1 L), 1:1 water:MeOH. The desired product begins to elute after about 500 mL of 1:1 water:MeOH. The fractions are combined and concentrated. The residue is dissolved in water (40 mL) and solid potassium carbonate (approx. 3 g) is added until pH=8. The pH is adjusted to about 2 with 50% sulfuric acid resulting in the formation of a precipitate. The solid is collected, which contained approximately 10% TEA. The solid is suspended in water (50 mL), and the pH is adjusted to about 8 with solid potassium carbonate to produce a yellow solution. The resultant yellow solution is treated dropwise with 50% sulfuric acid until a pH of about 2 is reached, resulting in the precipitation of a solid. The solid is collected and slurried in water (75 mL). The solid is collected and dried giving 4 g, representing 12% of quercetin-3′-O-phosphate. […]

[6] = molecular target: T1, AdrenergicA2A (Homo sapiens, UniProt P08913); assay: GTPγS functional assay; type: biochemical; details: 10 μM; potentially inverse agonist
T1 sequence (P08913 1-465): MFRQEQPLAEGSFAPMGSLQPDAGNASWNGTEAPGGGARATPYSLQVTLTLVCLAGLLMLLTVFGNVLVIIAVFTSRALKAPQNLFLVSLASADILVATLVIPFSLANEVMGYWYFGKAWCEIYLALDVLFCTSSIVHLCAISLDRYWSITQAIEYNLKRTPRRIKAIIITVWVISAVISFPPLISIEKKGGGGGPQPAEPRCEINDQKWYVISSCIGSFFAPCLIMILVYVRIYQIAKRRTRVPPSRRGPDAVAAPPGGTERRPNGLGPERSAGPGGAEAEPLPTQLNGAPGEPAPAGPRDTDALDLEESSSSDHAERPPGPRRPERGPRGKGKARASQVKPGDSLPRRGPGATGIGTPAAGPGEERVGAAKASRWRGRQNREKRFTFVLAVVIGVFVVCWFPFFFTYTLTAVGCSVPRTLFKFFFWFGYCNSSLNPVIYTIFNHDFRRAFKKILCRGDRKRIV
Method: (§2) The compound is additionally tested in AdenosineA1, AdrenergicA2A, DopamineD25, Histamine H1-, and μ-Opiate GTPγS functional assays using a concentration of 10 μM.

[7] = molecular target: T2, AdenosineA1 (Homo sapiens, UniProt P30542); assay: GTPγS functional assay; type: biochemical; details: 10 μM
T2 sequence (P30542 1-326): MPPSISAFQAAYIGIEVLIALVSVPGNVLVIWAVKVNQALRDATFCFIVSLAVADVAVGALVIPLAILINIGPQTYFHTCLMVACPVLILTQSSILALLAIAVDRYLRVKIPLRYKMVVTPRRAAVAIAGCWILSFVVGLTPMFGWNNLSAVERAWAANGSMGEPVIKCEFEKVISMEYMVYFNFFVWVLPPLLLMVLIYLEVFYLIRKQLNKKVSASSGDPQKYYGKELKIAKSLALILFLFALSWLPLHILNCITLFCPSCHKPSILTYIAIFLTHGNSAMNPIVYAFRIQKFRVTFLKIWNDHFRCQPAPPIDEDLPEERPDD
Method: as §2

- solubility [5]: ≥ 80 mg/mL
- inhibition in GTPγS functional assay [6]: marked negative inhibition
- antagonist activity [7]: 48%
SMILES: O=c1c(O)c(-c2ccc(O)c(OP(=O)(O)O)c2)oc2cc(O)cc(O)c12 [Quercetin-3′-O-phosphate]
- Blood glucose, Mean change from Prograf ® control ([1]; Day 1): +0.02 g/l
- Blood glucose, Mean ([1]; Day 1): 1.29 g/L
- Blood glucose, individual rats ([1]; Day 1): 1.18 g/L and 1.19 g/L and 1.41 g/L and 1.36 g/L and 1.30 g/L
- Blood glucose, Mean change from Day 1 ([1]; Day 10): +0.65 g/l
- Blood glucose, Mean change from Prograf ® control ([1]; Day 10): +0.45 g/l
- Blood glucose, Mean ([1]; Day 10): 1.94 g/L
- Blood glucose, individual rats ([1]; Day 10): 1.50 g/L and 2.41 g/L and 2.19 g/L and 1.51 g/L and 2.10 g/L
- Blood glucose, Mean change from Day 1 ([1]; Day 15): +0.99 g/l
- Blood glucose, Mean change from Prograf ® control ([1]; Day 15): -0.26 g/L
- Blood glucose, Mean ([1]; Day 15): 2.28 g/L
- Blood glucose, individual rats ([1]; Day 15): 2.07 g/L and 2.90 g/L and 3.16 g/L and 1.83 g/L and 1.42 g/L
- Blood glucose, Mean change from Day 1 ([1]; Day 20): +1.55 g/l
- Blood glucose, Mean change from Prograf ® control ([1]; Day 20): -0.09 g/L
- Blood glucose, Mean ([1]; Day 20): 2.84 g/L
- Blood glucose, individual rats ([1]; Day 20): 1.99 g/L and 3.28 g/L and 3.67 g/L and 3.58 g/L and 1.67 g/L
- Blood glucose, Mean change from Day 1 ([1]; Day 25): +0.87 g/l
- Blood glucose, Mean change from Prograf ® control ([1]; Day 25): -0.39 g/L
- Blood glucose, Mean ([1]; Day 25): 2.16 g/L
- Blood glucose, individual rats ([1]; Day 25): 2.34 g/L and 2.54 g/L and 2.04 g/L and 2.67 g/L and 1.23 g/L
- effect on tacrolimus induced hyperglycemia ([1]; rats, Q-Phosphate 114 mg/kg i.p. with tacrolimus 0.5 mg/kg): can attenuate tacrolimus induced hyperglycemia
- percent inhibition [2]: 53%
- percent inhibition [3]: 51%
- percent inhibition [4]: 68%

From patent US7947733B2, “Phosphorylated pyrone analogs and methods” (Limerick BioPharma, priority 2007, dated 2011)
